From EP1101492A1, “NOVEL REMEDIES FOR ALLERGIC DISEASES” (FUJI YAKUHIN KOGYO KABUSHIKI KAISHA, priority 1998, dated 2000)

How the values were obtained:
[1] = test system: mouse experimental atopic dermatitis models; experiment: Auricle edema in experimental atopic dermatitis model (anti-DNP IgE sensitization, DNFB elicitation); type: in vivo, Balb/c mice; details: for % Inhibition IPR: auricle edema 1 hour post-elicitation; for % Inhibition IPR / % Inhibition LPR / % Inhibition vLPR: test compounds 60 mg/kg s.c., prednisolone 10 mg/kg i.p.; for % Inhibition IPR / % Inhibition LPR: once a day, 24 & 2 hours prior to DNFB-elicitation, vs untreated group; for % Inhibition LPR: auricle edema Day 1 post-elicitation; for % Inhibition vLPR: auricle edema Day 7 post-elicitation
Experimental: Intravenous injection of an anti-2,4-dinitrophenol (DNP) antibody (anti-DNP Ab, monoclonal IgE Ab; its antibody titer was 1 : 512 to 1 : 1024 by a rat heterologous passive cutaneous anaphylaxis reaction using a Wister rat) into a tail vein of female Balb/c mice (7-week old, body weight: 17 to 20 g, purchased from JAPAN SLC, Inc.) at a dose of […] per animal raised passive sensitization. Twenty four hours post-sensitization, 0.1% 2,4-dinitrofluorobenzene (DNFB; Nacalai Tesque, Inc.) in ethanol was painted onto both sides of a pair of mouse auricles at a dose of 10µL per each side for elicitation.
Fresh unsensitized mice were painted with 0.1% DNFB in ethanol onto their ear in the same manner as aforementioned and served as a control group. Not only immediately prior to elicitation but also 1 hour, 5 hours, daily between Days 1 and 14, and on Day 16 post-elicitation, ear thickness was measured using a dial thickness gauge (Peacock Co.). Each degree of auricle edemas was calculated: Auricular Edema (µm)=(Ear Thickness Post-Elicitation, µm) - (Ear Thickness immediately prior to Elicitation, µm) [formula]
Balb/c mice were passively sensitized with anti-DNP IgE Ab in the same manner as in Example 1. Twenty four hours later, 0.1% DNFB in ethanol was painted onto both sides of a pair of mouse auricles at a dose of 10 µL per each side for elicitation.
Immediately prior to elicitation, 1 hour and on Day 1 post-elicitation, auricle thickness was measured in the same manner as in Example 1. Each therapeutic efficacy is recorded as a percent inhibition wherein the "auricle edema (untreated group)" is used as a control. Auricle Edema Inhibition (%) = [ 1 -(Auricle Edema (Treated Group))/(Auricle Edema (Untreated Group))] × 100 (%) [formula]
Immediately prior to elicitation, and on Day 7 post-elicitation, auricle thickness was similarly measured. Each therapeutic efficacy is recorded as a percent inhibition wherein the auricle edema in the untreated group is used as a control.
Immediately prior to elicitation, and on Day 7 post-elicitation, auricle thickness was similarly measured. Each therapeutic efficacy is recorded as a percent inhibition wherein the auricle edema (untreated group) is used as a control.
Immediately prior to elicitation, at 1 and 4 hours and on Days 1, 3 and 7 post-elicitation, auricle thickness was similarly measured. From each auricle edema (µm) based on the auricle thickness immediately prior to elicitation, especially a prophylactically therapeutic efficacy of the test compound was evaluated.
Immediately prior to elicitation, at 0.5, 1 and 4 hours and on Days 1, 3 and 7 post-elicitation, auricle thickness was similarly measured. Each amount of auricle edemas was calculated (average± standard deviation).

IgE = experiment: Serum IgE level in sensitized and DNFB-elicited mice (ELISA); type: in vivo, Balb/c mice; details: 100 µg/ear in ethanol painted twice a day, 1 hour pre-elicitation, 0.25, 4, 5 and 6 days post-elicitation; serum 7 days post-elicitation; average ± standard deviation; untreated 34.55 ± 8.89, healthy 11.79 ± 2.35
Source text: Ethanol alone was also painted onto both sides of a mouse left auricle. […] Blood was also drawn from unsensitized healthy mice and untreated mice and treated to give serum samples. Seven days post-elicitation, blood samples were drawn by cardiac puncture using a syringe treated with heparin, and then centrifuged to give serum samples.
A dilution of polyclonal goat anti-mouse IgE antibody (Bethyl Laboratories, Inc.; 500-fold dilution) in 0.1 M sodium carbonate-sodium bicarbonate buffer (pH 9.6) was added to each well of a 96-well microtest plate (MaxiSorp, Nunc, Inc.) at a rate of 100 µL/well and the resultant microtest plates were allowed to stand at about 4°C overnight in a refrigerator. Each well was rinsed 3 times with phosphate buffer (pH 7.4) containing 0.05% Tween 20. Next, 0.1 M sodium carbonate-sodium bicarbonate buffer (pH 9.6) containing 1 % bovine serum albumin was added to each well at a rate of 100 µL/well. The resultant microtest plates were allowed to stand at room temperature for 1 hour and washed 3 times. Thereafter, 2-fold serial dilutions of mouse serum samples were poured into each well of microtest plates at 100 µL/well, which was subjected to an antigen-antibody reaction at 4°C for 2 hours. […] The resultant enzymatic reaction products were measured at 405 nm.

Body weight gain in mice = details: test compounds 60 mg/kg s.c., prednisolone 10 mg/kg i.p., once a day for 6 days (Days 0-5), average ± standard deviation; for Body Weight Gain, Observation Day 5: non-administered 0.50± 0.23; for Body Weight Gain, Observation Day 7: non-administered 0.80± 0.48; for Body Weight Gain, Observation Day 10: non-administered 1.07± 0.58
Experimental: Accordingly, for assessing the side-effect each of the following test compounds an action on body weight gains was examined.
Next the mice were measured for their body weight. Each body weight gain was calculated on Days 5, 7 and 10 post-administration based on the body weight just prior to administration.

[2] = Body weight gain in sensitized mice; type: in vivo; details: test compound 50 µg/ear/dose, prednisolone 5 µg/ear/dose, in ethanol painted twice a day, Days 1, 4 and 7, vs solvent control (ethanol)
Experimental: Experimental atopic dermatitis model mice sensitized in the same manner as in Example 1 were examined for influence on body weight gains.
Each mouse was measured for its body weight not only immediately before the start in painting but also on Days 1, 4 and 7 after the start in painting. Each gain in body weight was calculated and considered to indicate an effect on body weight changes affected by said treatments.

[3] = test system: guinea pig experimental bronchial asthma models; experiment: Experimental bronchial asthma model (ovalbumin inhalation): airway resistance and asthmatic death; details: prednisolone 10 mg/kg orally;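 also: female Std:Hartley guinea pigs sensitized by inhaling nebulized ovalbumin once daily for 8 consecutive days, 8 to 11 animals per group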
Experimental: Guinea pigs (female, Std:Hartley, 3 weeks old, 200 to 250 g) were individually housed in a plastic chamber (width, 200 mm; depth, 300 mm; height, 167 mm). Aqueous ovalbumin (10 mg/mL) was administered to the guinea pigs once a day for sensitization by 10 min. inhalation with a nebulizer (5B, Nippon Shoji K.K.: flow rate, 6 L/min.) at a dose of 10 mg/mL during 8 cosecutive days. On Day 7 after the final sensitization, the guinea pigs were housed in a plastic chamber and inhaled using a nebulizer with a solution of ovalbumin (10 mg/mL) in physiological saline for 1 min. for elicitation (Matsumoto, T., et al., The Journal of Pharmacology and Experimental Therapeutics, 269: 1236-1244, 1994). The number of animals employed in the experiment was set to the extent there are at least 6 as individuals escaping asthmatic death. A solution of a test compound (Compound No. 130, 15 mg/kg) in water for injection was administered subcutaneously twice, i.e., 24 hours and 2 hours prior to elicitation. Similarly, the solvent alone was also administered to a negative control group. A suspension of prednisolone (10 mg/kg) in 0.5% aqueous methyl cellulose was administered orally twice, i.e., 24 hours and 2 hours prior to elicitation. Similarly, the solvent alone was also administered to another control group.
The evaluation for efficacies was conducted in terms of airway resistance. For this purpose, an apparatus dedicated to the measurement of airway resistance (K.K. Medical Agent) was employed. Measurement includes setting a guinea pig in a test chamber under a not-anesthetized condition, applying sinusoidal pressure waves of 30 Hz components to a part below the neck of the animal from the back side of the chamber, measuring respiratory waves of 30 Hz components leaking through the mouth (volume of 30 Hz air flow passing through the respiratory tract) in front of the neck, and calculating airway resistance mechanically. Measurement was carried out immediately prior to the first drug treatment (24 hours before elicitation), just prior to elicitation, 10 minutes, 1, 2, 4, 6, and 8 hours post-elicitation.
It was visually observed by a person carrying out said test in terms, of the appearance of cyanosis or suffocative death (asthmatic death) due to respiratory obstruction.
Guinea pigs were sensitized with ovalbumin and asthma was induced on Day 7 after final sensitization in the same manner as in Example 20. The number of animals employed in the experiment was set to the extent there are at least 6 as individuals escaping asthmatic death (8 to 11 animals/group). In the same manner as in Example 20, the animals were measured for airway resistance mechanically and each percent change (%) in airway resistance was calculated (each value just prior to elicitation was set as 100%). Each percent amelioration in airway resistance was calculated from the percent changes in airway resistance according to the following formula: Amelioration in Airway Resistance (%) = 1 -[((Percent Change in Airway Resistance after Drug-Administration) - (Value just prior to Challenge (100)))/((Percent Change in Airway Resistance after Solvent-Administration) - (Value just prior to Challenge (100)))]× 100 [formula]

[4] = daily from 3 to 6 days after DNFB-elicitation
[5] = daily from 1 day prior to through 5 days after DNFB-elicitation
[6] = asthmatic death due to cyanosis within several minutes after elicitation, Compound No. 130 15 mg/kg s.c., 24 and 2 hours prior to elicitation
[7] = test compounds 15 mg/kg s.c. (Compound No. 114: 30 mg/kg), 24 and 2 hours prior to elicitation, vs solvent control

| SMILES | inhibitory efficacy on IgE-mediated auricle edema (FIG. 8) ([1]; 150 mg/kg orally once a day, compared to solvent control group, IPR 1 hour, LPR 1 day, vLPR 7 days) | % Inhibition IPR [1] | % Inhibition LPR [1] | % Inhibition vLPR [1, 4] | % Inhibition vLPR [1, 5] | Serum IgE Level (IgE) | Body Weight Gain, Observation Day 5 (Body weight gain in mice) | Body Weight Gain, Observation Day 7 (Body weight gain in mice) | Body Weight Gain, Observation Day 10 (Body weight gain in mice) | gain in body weight (FIG. 10) [2] | % Mortality [3, 6] | (Dead Animals)/(Tested Animals) [3, 6] | % Survival ([3]; asthmatic death within several minutes after elicitation, test compounds 15 mg/kg s.c. (Compound No. 114: 30 mg/kg), water for injection 54.5, 0.5% methyl cellulose 66.7) | % Amelioration in Airway Resistance, 1 Hour after Elicitation [3, 7] | % Amelioration in Airway Resistance, 6 Hours after Elicitation [3, 7] | % Amelioration in Airway Resistance, Immediately after Elicitation [3, 7] |
| --- | --- | --- | --- | --- | --- | --- | --- | --- | --- | --- | --- | --- | --- | --- | --- | --- |
| CC(=N)NCCCC[C@H](NC(=O)[C@H](CC(C)C)C(CCCc1ccccc1)C(=O)NO)C(=O)NCCN(C)C.CC(=O)O.CC(=O)O (mixture of isomers) [Compound No. 44, N^a-[4-(Hydroxyamino)-2(R)-isobutyl-3(RS)-(3-phenylpropyl)succinyl]-N^e-acetimidoyl-L-lysine N-(2-N',N'-dimethylaminoethyl)amide · 2 acetate] | not only an inhibitory activity on the development of edemas in both IPR and LPR but also a remarkably strong inhibitory activity in vLPR | 43.9% | 43.6% | 65.6% | 22.0% | 26.70 ± 10.88 ng/mL | 0.80± 0.30 | 1.08± 0.57 | 1.23± 0.56 |  |  |  |  |  |  |  |
| C[C@]12C=CC(=O)C=C1CC[C@@H]1[C@@H]2[C@@H](O)C[C@@]2(C)[C@H]1CC[C@]2(O)C(=O)CO [Prednisolone, reference compound] |  | 36.8% | 29.9% | 24.8% | 24.8% |  | 0.00± 0.26 | 0.03± 0.57 | 0.97± 0.47 | below that in the solvent control group | 22.2% | 2/9 | 75.0% | 23.6% | 14.8% | 11.5% |
